Experimental data taken from US20240270733A1, “HYDRATE FORM OF LAZERTINIB MESYLATE, PREPARATION METHOD THEREOF AND USE THEREOF” (HANGZHOU SOLIPHARMA CO., LTD., priority 2021, published 2024).
Entries after “also recorded” stand apart in the source; their conditions may differ. Counter-ions that a name gives are not always drawn. Like-named read-outs stand apart in the source and are kept apart here. Values belong to the molecule of their own block, whether it stands above or below them.

Tests used:
[1] = Accelerated closed-vial stability study; type: physicochemical; details: 40° C., 75% RH
physchem [2] = details: thermodynamic from solid, Instantaneous Solubility
[3] = Variable-temperature XRPD; type: physicochemical; details: heated up to 100° C.
Protocol: In this application, X-ray powder diffraction (XRPD) data were collected using a BrukerD8 Advance diffractometer; parameters are as follows: Cu radiation; wavelength: 1.54 Å; Current voltage: 40 KV, 40 mA; Scan range: 3˜40° 2θ.

[4] = 40° C., 75% RH; for Assay (%) / Color / XRPD: open vial
Protocol: The samples were placed under accelerated open-vial conditions (40° C., 75% RH, and open vial) to assess the stability of both samples.

[5] = pH 1.2
physchem [6] = details: thermodynamic from solid
[7] = cited from earlier work
[8] = sealed 5 mL vial in self-sealing bag
[9] = pH 1.2, simulated gastric fluid

- remains stable for at least (time) ([1]; 5 mL vial packed in a self-sealing bag (sealed)): at least 1 month
- solubility (physchem [2]; [9]): > 80 mg/mL
- solubility (physchem [2]; pH 4, aqueous buffer): > 50 mg/mL
- solubility (physchem [2]; water): > 50 mg/mL
- crystal form on heating (variable-temperature XRPD) [3]: remains unchanged
- remains stable for at least (time) ([4]; open): at least 21 days
- Assay (%) ([4]; 0 day): 98.79%
- Color ([4]; 0 day): white
- XRPD ([4]; 0 day): Form A
- Assay (%) ([4]; 21 days): 98.44%
- Color ([4]; 21 days): white
- XRPD ([4]; 21 days): Form A
- Instantaneous Solubility [5]: >50 mg/mL
- solubility at 4 hrs (physchem [6]; [9]): > 60 mg/mL
- solubility at 12 hrs (physchem [6]; [9]): > 60 mg/mL
- solubility thermodynamic (physchem [6]; [9]): > 60 mg/mL
- solubility at 4 hrs (physchem [6]; pH 4, aqueous buffer): 67.9 mg/mL
- solubility at 12 hrs (physchem [6]; pH 4, aqueous buffer): 67 mg/mL
- solubility thermodynamic (physchem [6]; pH 4, aqueous buffer): > 60 mg/mL
- solubility at 4 hrs (physchem [6]; water): 70.7 mg/mL
- solubility at 12 hrs (physchem [6]; water): 69.4 mg/mL
- solubility thermodynamic (physchem [6]; water): > 60 mg/mL
SMILES: C=CC(=O)Nc1cc(Nc2nccc(-n3cc(CN(C)C)c(-c4ccccc4)n3)n2)c(OC)cc1N1CCOCC1 [Form A, lazertinib mesylate]
- change in assay value [1, 8]: minimal change; also recorded: no significant changes
- color before and after storage [1, 8]: white; also recorded: no significant changes
- crystal form before and after storage [1, 8]: remains unchanged; also recorded: no significant changes

- Assay (%) ([4]; 0 day): 98.73%
- Color ([4]; 0 day): yellow
- XRPD ([4]; 0 day): Form I
- Assay (%) ([4]; 21 days): 70.35%
- Color ([4]; 21 days): pink
- XRPD ([4]; 21 days): Form I
- change in assay value (in words) ([4]; open, 21 days): significant decrease
- change in color (in words) ([4]; open, 21 days): from yellow to pink
SMILES: C=CC(=O)Nc1cc(Nc2nccc(-n3cc(CN(C)C)c(-c4ccccc4)n3)n2)c(OC)cc1N1CCOCC1 [Form I, lazertinib mono-mesylate, reference compound]
- solubility ([7]; pH 1.2): 14.9 mg/mL
- solubility ([7]; pH 4): 20.9 mg/mL
